This note sets out measurements from PMC6009910, “Tertiary amine derivatives of chlorochalcone as acetylcholinesterase (AChE) and buthylcholinesterase (BuChE) inhibitors: the influence of chlorine, alkyl amine side chain and α,β-unsaturated ketone group” (Journal of Enzyme Inhibition and Medicinal Chemistry, 2016).

As a reminder, the IC50 is the point on the concentration scale where inhibition reaches its midpoint. Read a high IC50 as lower potency. The logP is the decadic logarithm of the partition coefficient of the neutral form, usually between octanol and water. Read a low logP as a more hydrophilic compound. What is called Ki is the dissociation constant of the complex between target and ligand, obtained from inhibition or displacement.

One series addresses T1, BuChE (Rattus norvegicus, UniProt Q9JKC1).
T1 construct: The brain and serum of Sprague–Dawley rat was used as the resource of AChE and BuChE, respectively; from tissue; host or cells: Sprague-Dawley rat serum
In words: BuChE inhibition assay (Ellman method). It is filed as biochemical, Sprague–Dawley rat. The protocol: (§1) AChE/BuChE activity assays were conducted by Ellman method with light modification. The brain and serum of Sprague–Dawley rat was used as the resource of AChE and BuChE, respectively. Each compound was dissolved in Tween 80 and diluted with water to various concentrations immediately before use. The reaction mixture containing 40 µL AChE/BuChE, 100 µL acetylthiocholine iodide/S-Butyrylthiocholine iodide, 2.76 mL Na2HPO4/NaH2PO4 buffer (pH 8.0, 0.1 mol/L), and 100 µL different concentrations of test compounds were incubated at 30 °C for 25 min. Then the reaction was terminated via adding 100 µL 20% sodium dodecyl sulfate (SDS), then 100 µL 10 mmol/L 5, 5'-Dithiobis-(2-nitrobenzoic acid) (DTNB) was added to generate the yellow anion 5-thio-2-nitro-benzoic acid. The absorbance of each assay mixture was measured at 412 nm by UV spectroscopy. The IC50 values were calculated by Bliss method and expressed as mean ± SD of the replicates.

Series [1] addresses T2, AChE (Rattus norvegicus, UniProt P37136).
T2 construct: The brain and serum of Sprague–Dawley rat was used as the resource of AChE and BuChE, respectively; from tissue; host or cells: Sprague-Dawley rat brain
In words: biochemical. The conditions noted are these: for IC50: rat brain AChE, means ± SD of three experiments; for Selectivity for AChE, IC50 (BuChE)/IC50 (AChE): ratio IC50 (BuChE)/IC50 (AChE). It is filed as biochemical. How it is done:
as §1

Series [2] in a line: Log p measurement by shake flask method. The conditions noted are these: octanol / PBS (pH =7.4), triplicate. The series is classed as physicochemical. How it is done: Log p, defined as the logarithm of octanol-water partition coefficient is an important parameter to evaluate the lipophilicify of compounds. It can be calculated by determining the concentration of compound in octanol phase and water phase until the partition equilibrium was completed. In present investigation, log p of compounds 4a∼4l was measured by the shake flask method with slight modification, and PBS (pH =7.4) was used as the water phase. The mobile phase was methanol: 0.1% triethylamine (TEA)/80:20 (v/v), at a flow rate of 1.0 mL.min^−1 through a C18 column ([…] ×4.6 mm, 5 µm) at 32 °C with detect wavelength 318 nm. Experiments were conducted in triplicate and log p values were calculated.

For series [3], the target named is T2, AChE. In words: Kinetic studies of AChE inhibition (Lineweaver–Burk). The series is classed as biochemical. How it is done:
as §1, with “replicates. Rivastigmine was used as the control drug.” for “replicates.”
Kinetic experiment was conducted by a reported method with some modifications. Compound 4l was added into the assay solution and pre-incubated with the enzyme at 30 °C, followed by the addition of 100-µL acetylthiocholine iodide including five concentrations. The assay solution contained 100 µL compound 4l, 100 µL DTNB, 2.76 mL 0.1 mol/L Na2HPO4/NaH2PO4 buffer (pH 8.0). Kinetic profile of AChE was determined by UV spectrophotometer at 412 nm. Additionally, the blank control experiment was conducted with the vehicle to replace compound 4l solution.

Several values for one entry are separate records, joined by “and”; a condition that tells them apart may be missing. Equal values may be shown once. Entries after “also recorded” stand apart in the source; their conditions may differ.

T1 sequence (Q9JKC1 24-597): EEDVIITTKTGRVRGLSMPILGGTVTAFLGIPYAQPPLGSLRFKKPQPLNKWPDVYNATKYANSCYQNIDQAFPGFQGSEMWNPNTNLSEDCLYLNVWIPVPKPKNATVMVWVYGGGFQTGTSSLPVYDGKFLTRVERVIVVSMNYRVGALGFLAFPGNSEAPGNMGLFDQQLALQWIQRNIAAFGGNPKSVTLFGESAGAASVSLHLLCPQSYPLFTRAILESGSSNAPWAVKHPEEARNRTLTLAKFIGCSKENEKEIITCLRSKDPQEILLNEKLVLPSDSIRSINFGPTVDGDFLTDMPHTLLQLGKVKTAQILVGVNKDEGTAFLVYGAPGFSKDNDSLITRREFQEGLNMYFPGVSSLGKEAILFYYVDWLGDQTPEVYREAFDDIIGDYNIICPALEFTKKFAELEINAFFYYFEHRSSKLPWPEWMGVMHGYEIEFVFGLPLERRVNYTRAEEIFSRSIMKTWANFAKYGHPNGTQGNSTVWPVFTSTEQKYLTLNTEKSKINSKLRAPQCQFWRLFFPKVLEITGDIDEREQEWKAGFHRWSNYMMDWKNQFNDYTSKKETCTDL
T2 sequence (P37136 32-614): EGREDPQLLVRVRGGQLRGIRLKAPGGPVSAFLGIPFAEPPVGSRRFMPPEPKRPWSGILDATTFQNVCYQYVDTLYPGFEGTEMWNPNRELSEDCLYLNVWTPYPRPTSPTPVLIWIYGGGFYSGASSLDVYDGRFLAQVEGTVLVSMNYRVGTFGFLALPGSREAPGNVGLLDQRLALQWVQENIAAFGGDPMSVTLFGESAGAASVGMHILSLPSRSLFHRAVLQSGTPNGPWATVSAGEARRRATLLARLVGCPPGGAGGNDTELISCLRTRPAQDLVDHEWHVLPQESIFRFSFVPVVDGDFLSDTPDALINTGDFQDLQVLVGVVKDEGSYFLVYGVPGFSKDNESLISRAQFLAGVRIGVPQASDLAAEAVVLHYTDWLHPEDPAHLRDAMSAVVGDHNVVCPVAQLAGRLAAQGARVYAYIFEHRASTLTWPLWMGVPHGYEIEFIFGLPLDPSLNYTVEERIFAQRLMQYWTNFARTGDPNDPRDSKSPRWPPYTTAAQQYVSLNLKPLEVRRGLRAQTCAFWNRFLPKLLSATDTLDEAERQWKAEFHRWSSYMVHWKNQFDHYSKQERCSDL

`O=C(/C=C/c1ccccc1Cl)c1ccc(O)cc1` [Compound 3a, 4'-Hydroxy-2-chlorochalcone]: the IC50 against BuChE and against AChE [1] was over 500 µM in each case.
On to `O=C(/C=C/c1cccc(Cl)c1)c1ccc(O)cc1` [Compound 3b, 4'-Hydroxy-3-chlorochalcone], for which the IC50 on BuChE and at AChE [1] was over 500 µM each time.
As for `O=C(/C=C/c1ccc(Cl)cc1)c1ccc(O)cc1` [Compound 3c, 4'-Hydroxy-4-chlorochalcone], the IC50 against BuChE and against AChE [1] was over 500 µM each time.
Molecule `CN(C)CCOc1ccc(C(=O)/C=C/c2ccccc2Cl)cc1` [Compound 4a, (E)-3–(2-chlorophenyl)-1–(4-(2-(dimethylamino)ethoxy)phenyl)prop-2-en-1-one] had an IC50 at BuChE of 41.1 ± 2.31 µM. For the same molecule, on AChE [1], the IC50 came out at 2.11 ± 0.38 µM and the “Selectivity for AChE, IC50 (BuChE)/IC50 (AChE)” value (“Selectivity for AChE, IC50” for short) is 19.5. The molecule further showed a logP in series [2] of 1.75.
On to `CN(C)CCOc1ccc(C(=O)/C=C/c2cccc(Cl)c2)cc1` [Compound 4b, (E)-3–(3-chlorophenyl)-1–(4-(2-(dimethylamino)ethoxy)phenyl)prop-2-en-1-one], for which the IC50 at BuChE came to 32.1 ± 7.16 µM. For the same molecule, on AChE [1], the IC50 is 3.76 ± 0.26 µM and the “Selectivity for AChE, IC50” value turned out to be 8.5. The molecule further showed a logP in series [2] of 1.83.
The like results for `CN(C)CCOc1ccc(C(=O)/C=C/c2ccc(Cl)cc2)cc1` [Compound 4c, (E)-3–(4-chlorophenyl)-1–(4-(2-(dimethylamino)ethoxy)phenyl)prop-2-en-1-one] were, in that order, 43.6 ± 6.94 µM, 1.55 ± 0.16 µM, 28.1 and 1.61.
The molecule `CCN(CC)CCOc1ccc(C(=O)/C=C/c2ccccc2Cl)cc1` [Compound 4d, (E)-3–(2-chlorophenyl)-1–(4-(2-(diethylamino)ethoxy)phenyl)prop-2-en-1-one] yielded an IC50 against BuChE of 63.8 ± 9.21 µM. Further, at AChE [1], the midpoint of inhibition, the IC50, lay at 5.42 ± 0.2 µM and the “Selectivity for AChE, IC50” value is given as 11.8. Besides, the logP in series [2] came to 1.63.
On to `CCN(CC)CCOc1ccc(C(=O)/C=C/c2cccc(Cl)c2)cc1` [Compound 4e, (E)-3–(3-chlorophenyl)-1–(4-(2-(diethylamino)ethoxy)phenyl)prop-2-en-1-one], for which the IC50 on BuChE was 80.2 ± 7.18 µM; on AChE [1], 5.83 ± 0.42 µM. Also, the “Selectivity for AChE, IC50” value on AChE [1] was 13.8. Further, the logP in series [2] was 1.62.
On BuChE, `CCN(CC)CCOc1ccc(C(=O)/C=C/c2ccc(Cl)cc2)cc1` [Compound 4f, (E)-3–(4-chlorophenyl)-1–(4-(2-(diethylamino)ethoxy)phenyl)prop-2-en-1-one] returned an IC50 of 101 ± 17.2 µM. Further, at AChE [1], the IC50 was 3.78 ± 0.39 µM and the “Selectivity for AChE, IC50” value is 26.7. This molecule also had a logP in series [2] of 1.69.
`O=C(/C=C/c1ccccc1Cl)c1ccc(OCCN2CCCCC2)cc1` [Compound 4g, (E)-3–(2-chlorophenyl)-1–(4-(2-(piperidin-1-yl)ethoxy)phenyl)prop-2-en-1-one]: the IC50 is 35.6 ± 7.31 µM against BuChE and 1.8 ± 0.48 µM at AChE [1]. Moreover, the “Selectivity for AChE, IC50” value at AChE [1] is 19.8. The molecule further had a logP in series [2] of 1.75.
As for `O=C(/C=C/c1cccc(Cl)c1)c1ccc(OCCN2CCCCC2)cc1` [Compound 4h, (E)-3–(3-chlorophenyl)-1–(4-(2-(piperidin-1-yl)ethoxy)phenyl)prop-2-en-1-one], the IC50 on BuChE is 24.5 ± 6.14 µM; against AChE [1], 1.31 ± 0.17 µM. Also, the “Selectivity for AChE, IC50” value at AChE [1] was 18.7. This molecule also displayed a logP in series [2] of 1.72.
In turn, `O=C(/C=C/c1ccc(Cl)cc1)c1ccc(OCCN2CCCCC2)cc1` [Compound 4i, (E)-3–(4-chlorophenyl)-1–(4-(2-(piperidin-1-yl)ethoxy)phenyl)prop-2-en-1-one] came in with an IC50 at BuChE of 114 ± 26.1 µM. Further, at AChE [1], half-maximal inhibition (IC50) was put at 0.91 ± 0.09 µM and the “Selectivity for AChE, IC50” value is recorded as 125.5. The molecule also registered a logP in series [2] of 1.79.
Molecule `O=C(/C=C/c1ccccc1Cl)c1ccc(OCCN2CCCC2)cc1` [Compound 4j, (E)-3–(2-chlorophenyl)-1–(4-(2-(pyrrolidin-1-yl)ethoxy)phenyl)prop-2-en-1-one] had an IC50 against BuChE of 32.1 ± 5.71 µM. On AChE [1], the IC50 amounted to 0.81 ± 0.03 µM and the “Selectivity for AChE, IC50” value came out at 39.6. In addition, the logP in series [2] stood at 1.85.
Molecule `O=C(/C=C/c1cccc(Cl)c1)c1ccc(OCCN2CCCC2)cc1` [Compound 4k, (E)-3–(3-chlorophenyl)-1–(4-(2-(pyrrolidin-1-yl)ethoxy)phenyl)prop-2-en-1-one] showed an IC50 against BuChE of 31.1 ± 3.41 µM. At AChE [1], the IC50 was determined as 0.28 ± 0.05 µM and the “Selectivity for AChE, IC50” value stood at 110.9. The molecule further gave a logP in series [2] of 1.81.
As for `O=C(/C=C/c1ccc(Cl)cc1)c1ccc(OCCN2CCCC2)cc1` [Compound 4l, (E)-3–(4-chlorophenyl)-1–(4-(2-(pyrrolidin-1-yl)ethoxy)phenyl)prop-2-en-1-one], on AChE [3] (AChE, mixed-type inhibition), the “noncompetitive constant (Ki’)” value stood at 2.95 µM. For the same molecule, the inhibition type entry at AChE [3] (Lineweaver–Burk analysis, Km increased and Vmax decreased with concentration) is given as “mixed-type inhibition; also recorded: mixed-type inhibitor”. Further, the “Ki’” value on AChE [3] (Supplement Table 2) is reported as 2.95 µM. Also, the Vmax was 0.0273 ΔAmin-1 on AChE [3] (compound 4l at 0.22 µM), 0.0263 ΔAmin-1 at AChE [3] (compound 4l at 0.43 µM) and 0.0230 ΔAmin-1 on AChE [3] (compound 4l at […]). The Ki at AChE [3] (read-out: competitive inhibition constant (Ki)) came out at 0.38 µM. For the same molecule, the values for the IC50 at BuChE and on AChE [1] were 113 ± 18.2 µM and 0.17 ± 0.06 µM, respectively. In addition, the “Selectivity for AChE, IC50” value on AChE [1] was 667 and 667.2. The molecule also returned a logP in series [2] of 1.83.
Turning to `CC(=O)N1N=C(c2ccc(OCCN3CCCCC3)cc2)CC1c1ccc(Cl)cc1` (stereo not shown) [Compound 5a, 1–(5-(4-Chlorophenyl)-3–(4-(2-(piperidin-1-yl)ethoxy)phenyl)-4,5-dihydro-1H-pyrazol-1-yl) ethan-1-one], at BuChE, the midpoint of inhibition, the IC50, lay at 97.6 ± 3.78 µM. Further, at AChE [1], half-maximal inhibition (IC50) required 5.94 ± 0.27 µM and the “Selectivity for AChE, IC50” value stood at 16.4.
The like results for `CC(=O)N1N=C(c2ccc(OCCN3CCCC3)cc2)CC1c1ccccc1Cl` (stereo not shown) [Compound 5b, 1–(5-(2-Chlorophenyl)-3–(4-(2-(pyrrolidin-1-yl)ethoxy)phenyl)-4,5-dihydro-1H-pyrazol-1-yl) ethan-1-one] were, in that order, 29.9 ± 1.25 µM, 6.31 ± 0.16 µM and 4.74.
As for `CC(=O)N1N=C(c2ccc(OCCN3CCCC3)cc2)CC1c1cccc(Cl)c1` (stereo not shown) [Compound 5c, 1–(5-(3-Chlorophenyl)-3–(4-(2-(pyrrolidin-1-yl)ethoxy)phenyl)-4,5-dihydro-1H-pyrazol-1-yl)ethan-1-one], the IC50 against BuChE came to 27.6 ± 2.58 µM. Also, on AChE [1], the IC50 was determined as 2.41 ± 0.34 µM and the “Selectivity for AChE, IC50” value was determined as 11.5.
Consider `CC(=O)N1N=C(c2ccc(OCCN3CCCC3)cc2)CC1c1ccc(Cl)cc1` (stereo not shown) [Compound 5d, 1–(5-(4-Chlorophenyl)-3–(4-(2-(pyrrolidin-1-yl)ethoxy)phenyl)-4,5-dihydro-1H-pyrazol-1-yl) ethan-1-one], for which the IC50 worked out at 108 ± 5.56 µM against BuChE and 2.04 ± 0.26 µM against AChE [1]. The “Selectivity for AChE, IC50” value at AChE [1] worked out at 52.96.
